Reference: article PMC7979765, “trans-Translation inhibitors bind to a novel site on the ribosome and clear Neisseria gonorrhoeae in vivo” (Nature Communications, 2021)
Where “and” joins values, the source holds several entries; their conditions need not be identical. Identical values can stand only once. Like-named read-outs stand apart in the source and are kept apart here.

Assays:
Glutamate, NMDA, Agonism = test: Receptor Profiling 232810; type: binding, rat; conditions: 10 μM
Experimental: (§1) Several in vitro selectivity assays were performed at Eurofins Discovery Services using established methods and controls that behaved as expected (Supplementary Tables 5 and 6). […] For receptor panel profiling, MBX-4132 was evaluated at 10 μM and activity of >50% (agonist or antagonist; note that negative % inhibition indicates agonism) was scored as active.

[1] = test system: N. gonorrhoeae strain 49226 (ATCC); test: Frequency of resistance; type: cell-based, Neisseria gonorrhoeae; conditions: selection at 4x and 8x MIC
Opiate Mu (OP3, MOP) = molecular target: T1, Opiate Mu (OP3, MOP) (Homo sapiens, UniProt P35372); test: Receptor Profiling 260410; type: binding
T1 construct: purchased Eurofins Discovery Services (Panlabs safety panel)
T1 sequence (P35372 whole entry): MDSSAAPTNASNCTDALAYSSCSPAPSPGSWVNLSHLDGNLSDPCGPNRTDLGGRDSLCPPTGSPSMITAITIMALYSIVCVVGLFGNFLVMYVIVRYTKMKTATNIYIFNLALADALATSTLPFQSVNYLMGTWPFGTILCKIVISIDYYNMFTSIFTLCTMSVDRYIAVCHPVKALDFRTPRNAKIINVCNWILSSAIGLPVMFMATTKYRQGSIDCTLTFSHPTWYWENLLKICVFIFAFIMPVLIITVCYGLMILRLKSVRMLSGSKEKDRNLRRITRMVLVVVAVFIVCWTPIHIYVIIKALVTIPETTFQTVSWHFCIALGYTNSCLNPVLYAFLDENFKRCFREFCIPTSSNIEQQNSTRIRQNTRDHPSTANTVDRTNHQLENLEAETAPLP
Experimental: as §1

[2] = test system: Salmonella typhimurium strains TA98 and TA100; type: cell-based
Experimental: The Ames assay was performed at SRI Biosciences, following the standard protocols established there[55]–[57]. In brief, samples were evaluated for their ability to induce genetic damage using the plate incorporation method with Salmonella typhimurium strains TA98 and TA100 with and without a metabolic activation mixture containing 10% Aroclar-1254-induced rat-liver microsomes (S9). MBX-4132 was tested from a 5 mg/mL DMSO stock solution (the solubility limit), which provided plate concentrations up to 500 µg/plate, with serial dilutions accessing doses as low as 5 µg/plate. MBX-4132 precipitated at the two highest dose levels (500 and 100 µg/plate), but at 50 µg/plate, no precipitation was observed. […] Test articles were considered mutagenic when the mean number of revertant colonies increased in a dose-dependent manner. Some cytotoxicity was observed, but sufficient colonies were formed to allow analysis. […] Data for 2-nitrofluorene and sodium azide (positive controls) and DMSO (negative control) were included for reference.

[3] = molecular target: T2, Serotonin (5-hydroxytryptamine) 5-HT3 (Homo sapiens, UniProt P46098); test: Receptor Profiling 271910; type: binding
T2 construct: Eurofins Discovery Services (contract assay) 271910
T2 sequence (P46098 24-478): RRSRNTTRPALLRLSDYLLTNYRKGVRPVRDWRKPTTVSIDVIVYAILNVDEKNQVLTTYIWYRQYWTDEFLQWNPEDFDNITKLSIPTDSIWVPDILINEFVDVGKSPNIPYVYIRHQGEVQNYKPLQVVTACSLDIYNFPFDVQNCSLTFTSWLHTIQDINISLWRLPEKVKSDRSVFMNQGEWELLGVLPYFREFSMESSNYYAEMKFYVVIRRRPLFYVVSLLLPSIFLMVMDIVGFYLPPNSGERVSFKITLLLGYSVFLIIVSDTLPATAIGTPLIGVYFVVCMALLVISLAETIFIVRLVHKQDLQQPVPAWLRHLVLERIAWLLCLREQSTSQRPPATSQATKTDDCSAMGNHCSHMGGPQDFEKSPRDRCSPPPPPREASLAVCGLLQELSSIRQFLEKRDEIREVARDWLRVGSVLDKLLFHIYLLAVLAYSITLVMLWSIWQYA
Experimental: as §1

Endothelin ETA = molecular target: T3, Endothelin ETA (Homo sapiens, UniProt P25101); test: Receptor Profiling 224010; type: binding
T3 construct: purchased Eurofins Discovery Services (Panlabs safety panel)
T3 sequence (P25101 21-427): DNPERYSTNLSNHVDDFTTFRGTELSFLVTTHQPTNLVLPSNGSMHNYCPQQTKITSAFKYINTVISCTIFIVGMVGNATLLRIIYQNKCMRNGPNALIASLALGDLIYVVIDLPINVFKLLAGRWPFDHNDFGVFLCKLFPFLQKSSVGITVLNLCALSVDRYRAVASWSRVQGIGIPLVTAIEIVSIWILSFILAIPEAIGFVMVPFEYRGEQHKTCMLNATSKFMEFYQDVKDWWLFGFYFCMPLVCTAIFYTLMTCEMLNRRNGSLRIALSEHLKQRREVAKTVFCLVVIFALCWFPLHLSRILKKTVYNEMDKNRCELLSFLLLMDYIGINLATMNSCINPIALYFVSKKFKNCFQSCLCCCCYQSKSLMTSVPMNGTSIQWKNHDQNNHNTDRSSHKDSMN
Experimental: as §1

[4] = molecular target: T4, Serotonin (5-hydroxytryptamine) 5-HT1A (Homo sapiens, UniProt P08908); test: Receptor Profiling 271110; type: binding
T4 construct: purchased Eurofins Discovery Services (Panlabs safety panel)
T4 sequence (P08908 whole entry): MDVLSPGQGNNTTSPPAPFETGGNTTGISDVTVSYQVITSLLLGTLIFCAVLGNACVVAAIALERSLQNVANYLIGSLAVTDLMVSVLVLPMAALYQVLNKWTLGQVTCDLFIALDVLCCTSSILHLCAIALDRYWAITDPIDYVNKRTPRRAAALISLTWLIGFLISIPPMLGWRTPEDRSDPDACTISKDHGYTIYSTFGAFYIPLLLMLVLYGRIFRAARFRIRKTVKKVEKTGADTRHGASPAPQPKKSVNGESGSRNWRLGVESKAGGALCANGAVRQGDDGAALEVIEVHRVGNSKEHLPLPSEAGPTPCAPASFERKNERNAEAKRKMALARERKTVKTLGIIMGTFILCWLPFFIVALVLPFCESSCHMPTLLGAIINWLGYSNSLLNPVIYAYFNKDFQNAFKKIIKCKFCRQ
Experimental: as §1

Muscarinic M2 = molecular target: T5, Muscarinic M2 (Homo sapiens, UniProt P08172); test: Receptor Profiling 252710; type: binding
T5 construct: purchased Eurofins Discovery Services (Panlabs safety panel)
T5 sequence (P08172 whole entry): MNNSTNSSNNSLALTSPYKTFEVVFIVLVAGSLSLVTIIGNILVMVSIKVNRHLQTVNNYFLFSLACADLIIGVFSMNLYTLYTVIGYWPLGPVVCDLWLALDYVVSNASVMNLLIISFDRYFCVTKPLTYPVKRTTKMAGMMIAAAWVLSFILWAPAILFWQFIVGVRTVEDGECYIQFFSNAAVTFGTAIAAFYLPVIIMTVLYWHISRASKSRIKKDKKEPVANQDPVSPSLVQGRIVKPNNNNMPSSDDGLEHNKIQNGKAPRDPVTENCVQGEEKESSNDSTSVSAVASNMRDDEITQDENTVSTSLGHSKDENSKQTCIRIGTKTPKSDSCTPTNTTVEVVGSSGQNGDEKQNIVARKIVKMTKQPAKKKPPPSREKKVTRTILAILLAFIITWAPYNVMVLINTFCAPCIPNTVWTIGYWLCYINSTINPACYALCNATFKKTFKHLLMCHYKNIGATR
Experimental: as §1

Mycoplasma pneumoniae = test: MIC, microbroth dilution; type: cell-based
[5] = Liver microsome stability, human; type: in vitro ADME
Experimental: To examine potential for first-pass metabolism of analogs in the liver, the stability of analogs in the presence of liver microsome preparations (Eurofins Discovery for human, dog and rat; Xenotech for mouse) was measured using the method of Kuhnz, et al.[50]. for murine studies and Oback for the dog, human and rat studies. The amount of parent compound remaining after incubation with microsomes in the presence of NADPH over a 30 min time range was measured using a reverse-phase liquid chromatography/mass spectroscopy method that was customized for each compound. Half-lives were calculated using linear regression analysis of several time points.

## O=C(Nc1nnc(-c2ccc(F)cc2)o1)N1CCc2ccccc2C1 [MBX-4132]
Glutamate, NMDA, Agonism
  % inhibition: 8%
[1]
  frequency of spontaneous mutants resistant: < 1.2 × 10^−9
Opiate Mu (OP3, MOP)
  inhibition at 10 µM: 17%
[2]; TA98, 1 µg/plate, + S9
  Average Mean Revertants/plate: 23.5 Revertants/plate
[2]; TA98, 1 µg/plate, no S9
  Average Mean Revertants/plate: 21.5 Revertants/plate
[2]; TA98, 1 µg/plate, no S9, replicates
  Mean Revertants/plate: 23 Revertants/plate and 20 Revertants/plate
[2]; TA98, 5 µg/plate, + S9
  Average Mean Revertants/plate: 22 Revertants/plate
[2]; TA98, 5 µg/plate, no S9
  Average Mean Revertants/plate: 17.0 Revertants/plate
[2]; TA98, 5 µg/plate, no S9, replicates
  Mean Revertants/plate: 18 Revertants/plate and 16 Revertants/plate
[2]; TA98, 10 µg/plate, + S9
  Average Mean Revertants/plate: 21 Revertants/plate
[2]; TA98, 10 µg/plate, no S9
  Average Mean Revertants/plate: 15.0 Revertants/plate
[2]; TA98, 10 µg/plate, no S9, replicates
  Mean Revertants/plate: 14 Revertants/plate and 16 Revertants/plate
[2]; TA98, 50 µg/plate, + S9
  Average Mean Revertants/plate: 18.5 Revertants/plate
[2]; TA98, 50 µg/plate, no S9
  Average Mean Revertants/plate: 20.0 Revertants/plate
[2]; TA98, 50 µg/plate, no S9, replicates
  Mean Revertants/plate: 18 Revertants/plate and 22 Revertants/plate
[2]; TA98, 100 µg/plate, + S9
  Average Mean Revertants/plate: 17.5 Revertants/plate
[2]; TA98, 100 µg/plate, no S9
  Average Mean Revertants/plate: 20.0 Revertants/plate
[2]; TA98, 100 µg/plate, no S9, replicates
  Mean Revertants/plate: 18 Revertants/plate and 22 Revertants/plate
[2]; TA98, 500 µg/plate, + S9
  Average Mean Revertants/plate: 20 Revertants/plate
[2]; TA98, 500 µg/plate, no S9
  Average Mean Revertants/plate: 17.5 Revertants/plate
[2]; TA98, 500 µg/plate, no S9, replicates
  Mean Revertants/plate: 19 Revertants/plate and 16 Revertants/plate
[2]; TA98, + S9, 1 µg/plate
  Mean Revertants/plate: 23.5
[2]; TA98, + S9, 5 µg/plate
  Mean Revertants/plate: 22.0
[2]; TA98, + S9, 10 µg/plate
  Mean Revertants/plate: 21.0
[2]; TA98, + S9, 50 µg/plate
  Mean Revertants/plate: 18.5
[2]; TA98, + S9, 100 µg/plate
  Mean Revertants/plate: 17.5
[2]; TA98, + S9, 500 µg/plate
  Mean Revertants/plate: 20.0
[2]; TA98, without S9, 1 µg/plate
  Mean Revertants/plate: 21.5
[2]; TA98, without S9, 5 µg/plate
  Mean Revertants/plate: 17.0
[2]; TA98, without S9, 10 µg/plate
  Mean Revertants/plate: 15.0
[2]; TA98, without S9, 50 µg/plate
  Mean Revertants/plate: 20.0
[2]; TA98, without S9, 100 µg/plate
  Mean Revertants/plate: 20.0
[2]; TA98, without S9, 500 µg/plate
  Mean Revertants/plate: 17.5
[2]; TA98 and TA100, with and without S9, any concentration tested
  revertant colonies vs DMSO control (in words): no significant deviation
[2]; TA100, 1 µg/plate, + S9
  Average Mean Revertants/plate: 107.5 Revertants/plate
[2]; TA100, 1 µg/plate, no S9
  Average Mean Revertants/plate: 112.5 Revertants/plate
[2]; TA100, 1 µg/plate, no S9, replicates
  Mean Revertants/plate: 108 Revertants/plate and 117 Revertants/plate
[2]; TA100, 5 µg/plate, + S9
  Average Mean Revertants/plate: 125.5 Revertants/plate
[2]; TA100, 5 µg/plate, no S9
  Average Mean Revertants/plate: 99.0 Revertants/plate
[2]; TA100, 5 µg/plate, no S9, replicates
  Mean Revertants/plate: 98 Revertants/plate and 100 Revertants/plate
[2]; TA100, 10 µg/plate, + S9
  Average Mean Revertants/plate: 102 Revertants/plate
[2]; TA100, 10 µg/plate, no S9
  Average Mean Revertants/plate: 97.0 Revertants/plate
[2]; TA100, 10 µg/plate, no S9, replicates
  Mean Revertants/plate: 94 Revertants/plate and 100 Revertants/plate
[2]; TA100, 50 µg/plate, + S9
  Average Mean Revertants/plate: 71 Revertants/plate
[2]; TA100, 50 µg/plate, no S9
  Average Mean Revertants/plate: 73.0 Revertants/plate
[2]; TA100, 50 µg/plate, no S9, replicates
  Mean Revertants/plate: 79 Revertants/plate and 67 Revertants/plate
[2]; TA100, 100 µg/plate, + S9
  Average Mean Revertants/plate: 43 Revertants/plate
[2]; TA100, 100 µg/plate, no S9
  Average Mean Revertants/plate: 54.0 Revertants/plate
[2]; TA100, 100 µg/plate, no S9, replicates
  Mean Revertants/plate: 55 Revertants/plate and 53 Revertants/plate
[2]; TA100, 500 µg/plate, + S9
  Average Mean Revertants/plate: 19.5 Revertants/plate
[2]; TA100, 500 µg/plate, no S9
  Average Mean Revertants/plate: 35.5 Revertants/plate
[2]; TA100, 500 µg/plate, no S9, replicates
  Mean Revertants/plate: 38 Revertants/plate and 33 Revertants/plate
[2]; TA100, + S9, 1 µg/plate
  Mean Revertants/plate: 107.5
[2]; TA100, + S9, 5 µg/plate
  Mean Revertants/plate: 125.5
[2]; TA100, + S9, 10 µg/plate
  Mean Revertants/plate: 102.0
[2]; TA100, + S9, 50 µg/plate
  Mean Revertants/plate: 71.0
[2]; TA100, + S9, 100 µg/plate
  Mean Revertants/plate: 43.0
[2]; TA100, + S9, 500 µg/plate
  Mean Revertants/plate: 19.5
[2]; TA100, without S9, 1 µg/plate
  Mean Revertants/plate: 112.5
[2]; TA100, without S9, 5 µg/plate
  Mean Revertants/plate: 99.0
[2]; TA100, without S9, 10 µg/plate
  Mean Revertants/plate: 97.0
[2]; TA100, without S9, 50 µg/plate
  Mean Revertants/plate: 73.0
[2]; TA100, without S9, 100 µg/plate
  Mean Revertants/plate: 54.0
[2]; TA100, without S9, 500 µg/plate
  Mean Revertants/plate: 35.5
[3]
  inhibition at 10 µM: 4%
Endothelin ETA
  inhibition at 10 µM: -15%
[4]
  inhibition at 10 µM: 30%
Muscarinic M2
  inhibition at 10 µM: 7%
Mycoplasma pneumoniae; Mycoplasma pneumoniae ATCC 15531, replicates
  MIC: ≥34 µg/mL
Mycoplasma pneumoniae; Mycoplasma, ATCC15531, strain ATCC 15531, read-out: MIC
  MIC: ≥ 34 µg/mL
[5]; Reported value, Eurofins
  Microsomal stability (t½, min) Human: >120 min
[5]; human, liver microsomes, read-out: Microsomal Stability (t1/2; min) Hum.
  half-life: > 120 min
